Results on 2 compounds are retold here after patent US10632101B2, “Methods and compositions for supporting endogenous systems related to life span” (USANA Health Sciences, Inc., priority 2016, dated 2020).

The structures appear in SMILES notation.

One test concerns the target T1, human PPARα (Homo sapiens, UniProt Q07869).
T1 construct: expressed in transfected cells; host or cells: CHO
T1 sequence (Q07869 239-466 limits assumed): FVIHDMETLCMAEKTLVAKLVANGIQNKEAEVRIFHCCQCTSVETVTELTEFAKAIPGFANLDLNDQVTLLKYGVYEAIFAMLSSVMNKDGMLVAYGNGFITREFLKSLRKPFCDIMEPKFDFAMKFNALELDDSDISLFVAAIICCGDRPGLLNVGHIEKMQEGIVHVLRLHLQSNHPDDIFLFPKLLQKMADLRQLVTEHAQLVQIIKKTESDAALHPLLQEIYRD
The test can be described thus: PPARα reporter cell assay, agonist mode. The class given is cell-based.

In another test the target is T2, human PPARδ (Homo sapiens, UniProt Q03181).
T2 construct: expressed in transfected cells; host or cells: CHO
T2 sequence (Q03181 211-439 limits assumed): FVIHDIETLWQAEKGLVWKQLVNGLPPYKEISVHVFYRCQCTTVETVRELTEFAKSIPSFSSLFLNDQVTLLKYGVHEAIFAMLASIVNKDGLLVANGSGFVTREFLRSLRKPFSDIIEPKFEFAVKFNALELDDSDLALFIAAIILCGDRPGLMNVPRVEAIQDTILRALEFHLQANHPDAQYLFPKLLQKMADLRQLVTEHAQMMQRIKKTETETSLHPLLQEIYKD
As to the kind of experiment: PPARδ reporter cell assay, agonist mode. Format: cell-based.

The target of the next test is T3, human PPARγ (Homo sapiens, UniProt P37231).
T3 construct: expressed in transfected cells; host or cells: CHO
T3 sequence (P37231 238-503 limits assumed): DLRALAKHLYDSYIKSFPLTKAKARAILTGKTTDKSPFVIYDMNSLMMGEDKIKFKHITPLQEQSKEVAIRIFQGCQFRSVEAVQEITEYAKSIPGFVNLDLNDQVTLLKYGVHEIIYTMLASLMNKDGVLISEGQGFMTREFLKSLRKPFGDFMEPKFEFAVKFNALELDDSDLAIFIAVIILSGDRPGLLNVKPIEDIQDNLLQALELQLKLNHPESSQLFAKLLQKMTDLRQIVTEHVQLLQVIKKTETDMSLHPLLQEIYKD
As to the kind of experiment: PPARγ reporter cell assay, agonist mode. The class given is cell-based.

A further test concerns human NF-κB. As to the kind of experiment: NF-κB reporter cell assay, antagonist mode. Format: cell-based.
Test [1] has as its system NF-κB reporter cells (HEK293). As to the kind of experiment: Live cell multiplex read-out in the NF-κB antagonist assay. Format: cell-based, human. The procedure:
Various receptor assays were carried out for test compounds corresponding to ingredients of the nutritional supplement composition. In general, the receptor assays utilized reporter cells that either expressed a native receptor or a receptor hybrid. The receptor hybrids were engineered so that the native N-terminal DNA binding domain (DBD) was replaced with a yeast Gal4 DBD. The reporter cells expressed a hybrid receptor comprising either the native receptor (Nrf2 and NF-κB) or the N-terminal Gal4 DNA binding domain fused to the ligand binding domain of the specific human nuclear receptor (PPARα, PPARδ, and PPARγ). The reporter gene (e.g., firefly luciferase) was functionally linked to either upstream receptor-specific response elements (GRE) or the Gal4 upstream activation sequence (UAS). A summary of the receptors, the reporter cells used for each particular receptor assay, and the reference compounds used to confirm performance of the receptor assays are indicated below in Table 4.
A vehicle control was prepared. […] After incubation, fluorescence was measured to determine a relative number of live cells per test well.

For a further test, the system named is C. elegans strain CB5586. As to the kind of experiment: Phenotypic lifespan screening in C. elegans. Format: in vivo. The conditions noted are these: for effect on chronological lifespan: 0.1 and 10 mg/ml tested. As to the method: Dilutions of the test formulations were applied to individual populations of C. elegans and the lifespan of each population was monitored. Any changes in the lifespan of an individual population compared to a control population were recorded and correlated to the respective test formulation (N356 or N357) and the respective dilution (0.1 mg/ml, 1 mg/ml, and 10 mg/ml).
The N256 and N357 formulations were each prepared as individual 100 mg/ml stock solutions in dimethyl sulfoxide (DMSO). Serial dilutions of each stock solution were then prepared at 0.1 mg/ml, 1 mg/ml, and 10 mg/ml in DMSO. Control solutions of DMSO only were also prepared. Synchronous aged adult populations of C. elegans strain CB5586 worms were prepared. The CB5586 strain comprises a pharyngeal GFP (green fluorescent protein) tag and a mutation in the bus-5 gene. The pharyngeal GFP tag allows for fluorescent images of the worm populations to be taken. The mutation in the bus-5 gene causes the loss of normal cuticle antigens that permits the cuticle of the worms to become permeable to the test formulations and allow direct uptake of the test formulations to avoid interaction of the test formulations with protective mechanisms of the gut channel. Each serial dilution of each test formulation was added to a separate population of the prepared worms. The control solutions were also added to separate populations of the prepared worms. The populations of the prepared worms were then maintained on standard nematode growth media (NGM) agar plates at 20° C. with sufficient food (Escherichia coli strain OP-50).
Each worm population was then monitored by fluorescent imaging to determine the number of living and dead worms as a function of time. The fluorescent imaging was analyzed by software that recognized and counted worms based on their fluorescent intensity compared to background fluorescence. […] The ability to distinguish between living and dead worms allowed the number of living worms and a cumulative number of dead worms to be monitored against time. Worm populations from a selection of fluorescent images were manually checked to verify that the software had accurately counted the number of living and dead worms.
The counts of the living and dead worms as a function of time were then analyzed for each of the worm populations and used to prepare Kaplan-Meier survival curves and associated statistics for each of the worm populations. […] The median lifespan is shown as the length of time after the last mitotic division that 50% of the test population remains viable when compared to the control population. The maximum lifespan extension is shown as the length of time after the last mitotic division that 5% of the test population remains viable when compared to the control population.
The counts of the living and dead worms as a function of time and the Kaplan-Meier survival curves and the associated statistics were then analyzed for each of the worm populations. The analysis included determining mean and median lifespan. The analysis included a non-parametric test, the Log-Rank test, which compares two survival functions for the overall lifespan assay and provides a reliable p-value summarizing the whole experiment. The analysis also included Fisher's Exact Test that calculated the significance of survival function comparisons at multiple specific time points throughout the experiment, rather than for the overall lifespan. The results of the analysis are shown below in Tables 10-17.
Phenotypic screening was carried out as described in EXAMPLE 2 for various individual compounds of the N357 formulation. […] Alpha lipoic acid was sourced from PureBulk™ USA as a racemic mix of R and S stereoisomers and was assigned a sample number of N198. Hesperidin was sourced from Sigma Aldrich at ≥80% purity and was assigned a sample number of N347. […]

Another test concerns Nrf2. The test can be described thus: Nrf2 signaling fluorescent reporter assay in human retinal epithelial cell line. The class given is cell-based. The procedure:
The assays were carried out with a fluorescent reporter assay that utilized a human retinal epithelial cell line. The assays also included validation by RT-PCR (reverse transcription polymerase chain reaction) of Nrf2 target genes. The human retinal epithelial cell line was purchased from ATCC (American Type Cell Culture, Manassas, Va.) and was configured to function as a fluorescent reporter assay. Test solutions of each of the alpha lipoic acid, resveratrol, curcumin, EGCG, Olivol®, rutin, quercetin, and hesperetin were prepared by serial dilution. Control solutions were also prepared. Positive control solutions of a known Nrf2 agonist, L-sulphoraphane was also prepared. Each test solution was then assayed for Nrf2 signaling activity using the fluorescent reporter assay and compared to control assays. The positive control solutions were also tested.
Background: Reporter assays use an easily measured gene product as a stand-in for the process of interest.

A further test deals with T4, mTOR (Homo sapiens, UniProt P42345).
T4 construct: host or cells: isolated cells in culture (not specified)
The conditions noted are these: cited from earlier work.

In the case of `O=C(O)CCCCC1CCSS1` (racemic) [Alpha lipoic acid, alpha lipoic acid], the “PPARα Fold-Activation” value on human PPARα (1.42 μg/ml) turned out to be 1.4; at human PPARα (4.25 μg/ml) it was 1.3; on human PPARα (12.7 μg/ml), 1.2; on human PPARα (38.23 μg/ml), 1.5; on human PPARα (114.70 μg/ml), 2.3. The “PPARδ Fold-Activation” value is on record as 1.5 at human PPARδ (1.42 μg/ml); 1.1 at human PPARδ (4.25 μg/ml); 0.80 on human PPARδ (12.7 μg/ml); 0.52 at human PPARδ (38.23 μg/ml); 0.29 on human PPARδ (114.70 μg/ml). The “PPARγ Fold-Activation” value at human PPARγ (1.42 μg/ml) came to 1.1; on human PPARγ (4.25 μg/ml), 1.1; on human PPARγ (12.7 μg/ml), 1.3; at human PPARγ (38.23 μg/ml), 1.4; at human PPARγ (114.70 μg/ml), 3.4. For the same compound, the “NF-κB % Inhibition” value with human NF-κB (4.25 μg/ml) is given as −0.70%. In addition, the “NF-κB % Live Cell” value in test [1] (1.42 μg/ml) is 100%. For the same compound, the “effect on chronological lifespan” value in the test on C. elegans strain CB5586 was “significant positive and dose-dependent increase of chronological lifespan”. In addition, in the test with Nrf2 (100 and 30 μM), the “activation of Nrf2” value was “demonstrated activation of Nrf2”.

Take `Oc1ccc(/C=C/c2cc(O)cc(O)c2)cc1` [Resveratrol, 3,5,4′-trihydroxy-trans-stilbene]: the “NF-κB % Inhibition” value in the test on human NF-κB (2.54 μg/ml) is listed as −50%. Besides, the “NF-κB % Live Cell” value in test [1] (0.28 μg/ml (resveratrol series)) and in test [1] (0.85 μg/ml) was 100% each time. Moreover, the “Statistically Significant Result” value in the test on C. elegans strain CB5586 (0.1 mg/ml compared to DMSO control) was “No statistical difference”. In the test on C. elegans strain CB5586, the “effect on chronological lifespan” value was “significant positive and dose-dependent increase of chronological lifespan”. Besides, the “activation of Nrf2” value in the test with Nrf2 (10 μM and 1) is listed as “demonstrated activation of Nrf2”. Further, the “concentration with more activation of Nrf2” value with Nrf2 (of 10 μM and 1) turned out to be 10 µM. For the same compound, the “mTOR inhibition” value on mTOR (applied to isolated cells in culture) is given as “inhibit mTOR”. Besides, the “mTOR inhibition, mitophagy and mitochondrial turnover” value on mTOR was “inhibit mTOR, up-regulate mitophagy, and increase the rate of mitochondrial turnover”.
